Measured values from US20090215669A1, “COMPOSITIONS AND METHODS FOR TREATMENT OF DIABETES” (DIA-B TECH LIMITED, priority 2005, published 2009).
Where “and” joins values, the source holds several entries; their conditions need not be identical. Equal entries are not always repeated. One block for each compound: values may come before it. Ends that are not written are not given here. Peptide text beside a SMILES is read from it.

How the values were obtained:
Zinc-insulin hexamers = target: T1, Zinc-insulin hexamers (Bos taurus, UniProt P01317); assay: Circular dichroism of zinc-insulin hexamers (dispersal); type: biochemical, bovine; settings: Zn-insulin 1 mg/mL; for CD signal at 275 nm of Zn-insulin upon addition: ISF401 1 μL of 100 mM, EDTA 4 mM
T1 construct: Zinc-insulin hexamers were prepared by dissolving bovine insulin containing 0.6% zinc
T1 sequence (P01317 25-54 limits assumed): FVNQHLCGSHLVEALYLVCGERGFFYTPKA
T1 sequence (P01317 85-105 limits assumed): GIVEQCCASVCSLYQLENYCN
Procedure: Zinc-insulin hexamers were prepared by dissolving bovine insulin containing 0.6% zinc in […] then raising the pH to 7.2-7.4 by addition of NaOH. HEPES buffer was added to give a final solution of 1 mg/mL insulin in 25 mM HEPES buffer (pH 7.2). The CD spectrum of insulin or ISF401 was measured from […] at 20° C. on a Jasco J-810 spectropolarimeter equipped with a PFD 423S/L Peltier type temperature controller. 200 μL of sample was placed in a quartz cuvette, with path length of 1 mm, in the spectropolarimeter and the CD spectrum was recorded. Each spectrum represents an average of 3-5 scans performed at 100 nm/min with a band width of 1 nm. The effect of ethylenediamine tetraacetic acid (EDTA) and ISF401 were measured by adding an aliquot of EDTA (4 mM) or an aliquot of ISF401 (100 mM) and measuring the CD spectrum.
To test dispersal of insulin hexamers by ISF401, circular dichroism (CD) was used.
The CD signal at 275 nm was used to measure the association state of insulin in the presence of ISF401 (1 μL of 100 mM), EDTA ([…] of 4 mM) and deionised water (1 μL).

hexameric insulin = target: T2, hexameric insulin (Homo sapiens, UniProt P01308); assay: Size exclusion chromatography of hexameric insulin with test peptide; type: biochemical
T2 construct: correspond to dimeric insulin (11.8 kDa) and monomeric (5.8 kDa) insulin respectively; purchased Sigma 19278
T2 sequence (P01308 25-54 limits assumed): as the sequence (P01317 25-54 limits assumed) above, with A30T counted along it
T2 sequence (P01308 90-110 limits assumed): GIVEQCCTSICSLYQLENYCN
Procedure: Size exclusion chromatography was used to study the effect of GHTD-amide (ISF401) on hexameric insulin. Recombinant Human Insulin solution (Sigma 19278) was diluted to 2 mg/mL with 10 mM Tris pH 7.4 and dialysed against 10 mM Tris pH 7.4 (to remove HEPES which absorbs strongly at 214 nm and coelutes with GHTD-amide). Insulin stock solution at 1.5 mg/mL was then prepared by addition of phenol to 4 mM, NaCl to 140 mM and ZnCl2 to 100 μM. Prior to size exclusion chromatography stock insulin was mixed either with water or test peptide to give a final concentration 1 mg/mL each of insulin and test peptide when applicable, and 10 mM Tris pH 7.4, 140 mM NaCl and […] ZnCl2 then incubated at room temperature for 1 hour. Samples of insulin or mixtures (800 μL) were then subjected to size exclusion chromatography using a 1×30 cm Superdex 75 HR 10/30 column at a flow rate of 0.1 mL min^−1 with an eluent comprising Tris-buffered isotonic saline (140 mM NaCl, 10 mM Tris/HCl pH 7.4, 60 μM ZnCl2) at a flow rate of 0.1 mL min^−1, UV detection at 214 nm and 276 nm, and collection of 0.5 mL fractions for protein determination. Protein size standards Aprotinin (6 kDa) and Carbonic Anhydrase (29 kDa) run under the same conditions eluted at 18.85 mL and 14.75 mL respectively. The gel matrix, which has a fractionation range of 3,000 to 70,000 Da, and sample volume loaded were chosen to ensure that the two peptides remained in contact within the gel matrix thereby allowing interaction to occur between the two during the separation process. The concentration of insulin was maintained at 1 mg/mL at pH 7.4 in the presence of 2 Zn^2+/hexamer since it has been shown that at this concentration insulin exists predominantly as Zn^2+-dependent hexamers.

[1] = Intravenous administration of 14C-ISF402: radioactivity in blood and serum; type: in vivo, rat
Procedure: (§1) ^14C-ISF402 (22.7 μCi/mg) was dissolved in water and diluted with unlabelled ISF402 to a concentration of 30 mg/mL for oral and 4.5 mg/mL for intravenous (IV) administration. The day before the experiment 16-18 week female Zucker fa/fa rats (300-400 g) rats were fasted overnight with free access to water before oral administration of ^14C-ISF402 by gavage at 30 mg/kg, 260-263.7 kBq/kg (5.0-5.1 μCi/kg) or IV with 4.5 mg/kg, 103.0-107.3 kBg/kg (1.98-2.06 μCi/kg). After administration of ^14C-ISF402 rats were placed into metabolic cages with free access to food and water.
(§2) Blood samples were collected from the tail vein over the 7 hour time course. Urine was collected at 4 and 12 hours after administration. Whole blood samples (100 μL) were collected and placed into dry ice then stored at −80° C. 50 μL of serum from whole blood was collected into T-MG clotting capiject tubes (Terumo, Elkton, Md.). Sera were separated by centrifuging blood for 90 seconds at 3000×g at room temperature. 100 μL and 50 μL of whole blood and serum, respectively was used for the measurement of radioactivity. The whole blood and serum samples were solubilized with 2 volumes of sample, 2 volumes of 1.4M NaOH and 1 volume of 30 percent hydrogen peroxide. The final volume was made to 1 mL by the addition of distilled water. 4 mL of HiSafe3 Optiphase (PerkinElmer, Boston, Mass.) was added and radioactivity determined in a Wallac Scintillation counter.
(§3) Urine was frozen at −20° C. until analysed for radioactivity. After measuring the total volume of urine, 100 μL of urine and 100 μL ethanol was added to 4 mL scintillant. Samples were left overnight after the addition of scintillant then counted for radioactivity using a Wallac 1409 liquid scintillant counter (PerkinElmer, Boston, Mass.). Radioactivity in all samples was counted several times over the course of 4 weeks until readings were consistent. Radioactivity was expressed as μg equivalent (eq.)/mL. This was calculated from the dpm per mL of sample divided by the specific radioactivity of the peptide administered. The integrity of the radiolabelled peptide in serum and urine samples was determined by reverse phase HPLC as described above.

[2] = Oral administration of 14C-ISF402: radioactivity in blood, serum and urine; type: in vivo, rat
Procedure: as §1, §2, §3

female Zucker fa/fa rats = assay: Intravenous injection of female Zucker fa/fa rats: blood glucose, serum insulin, C-peptide, triglyceride; type: in vivo, rat; settings: iv, Lispro insulin 1 U/kg alone, 60 minutes after injection
[3] = after incubation with test peptide, 276 nm
[4] = IV 4.5 mg/kg, 2 minutes after injection
[5] = IV 4.5 mg/kg, 90 minutes after injection, assuming radioactivity is intact ISF402

molar excess to insulin at maximum dispersion of insulin hexamers (Zinc-insulin hexamers): 10 fold | CD signal at 275 nm of Zn-insulin upon addition (Zinc-insulin hexamers): increased | elution volume of emerging peak corresponding to dimeric insulin (11.8 kDa) (hexameric insulin; [3]): 15.085 mL | elution volume of emerging peak corresponding to monomeric (5.8 kDa) insulin (hexameric insulin; [3]): 19.045 mL
Compound: Gly-His-Thr-Asp-NH2 (GHTD-NH2) [ISF401]
dissociation of hexameric insulin after incubation with test peptide (hexameric insulin; 1 mg/mL each of insulin and peptide, 1 hour room temperature, monitoring at 276 nm): cause the dissociation (disaggregation) of hexamers to dimeric and monomeric forms

Compound: O=C(O)CN(CCN(CC(=O)O)CC(=O)O)CC(=O)O [EDTA, ethylenediamine tetraacetic acid, reference compound]
CD signal at 275 nm of Zn-insulin upon addition (Zinc-insulin hexamers): increased

concentration in serum (radioactivity) [1, 4]: 24.8 ± 0.3 µg/mL | concentration in whole blood (radioactivity) [1, 4]: 12 ± 1 µg/mL | concentration in serum (radioactivity) [1, 5]: 8 ± 2 µg/mL | concentration in whole blood (radioactivity) [1, 5]: 3.4 ± 1.3 µg/mL | level at 7 h ([1]; rat, in vivo, IV 4.5 mg/kg, 7 hours, read-out: concentration detected at the conclusion of the time course): 2.2 ± 1.5 µg/mL | integrity of peptide in serum by reverse phase HPLC ([1]; serum collected 2 minutes after IV administration): intact | concentration in whole blood and sera ([2]; 30 minutes after oral dosing): Approximately 4 μg/mL | time to appearance in the circulation after dosing ([2]; oral 30 mg/kg): ≤ 30 min | concentration in whole blood (radioactivity) ([2]; oral 30 mg/kg, 7 hours): 44.2 ± 2.5 µg/mL | concentration in sera (radioactivity) ([2]; oral 30 mg/kg, after 90 minutes): 22.1 ± 4.9 µg/mL | concentration in whole blood (radioactivity) ([2]; oral 30 mg/kg, after 90 minutes, assuming labelled ISF402 still intact): 23.7 ± 2.1 µg/mL | level at 2 h ([2]; rat, in vivo, 30 mg/kg, 120 minutes after oral dosing, read-out: ISF402 levels in the circulation): > 20 µg/mL | share of radioactivity in urine associated with intact ISF402 ([2]; urine collected over 12 hours after administration): 47% and 46% | radioactivity retrieved in urine, of the total radioactive ISF402 administered ([2]; urine, 12 hours): 0.97±0.13% | share of radioactivity in urine associated with free Valine ([2]; urine, 12 hours after administration): 32%
Compound: CC(C)[C@H](N)C(=O)N[C@@H](Cc1c[nH]cn1)C(=O)N[C@H](C(=O)N[C@@H](CC(=O)O)C(N)=O)[C@@H](C)O [14C-ISF402] (H-VHTD-NH2)
composition of radioactivity in urine ([2]; urine collected over 4 hours after dosing): mixture of degraded peptide and intact ISF402

Compound: Lispro insulin: altered form of human insulin that does not form stable hexamers; Lispro (Humalog), Eli Lilly [reference compound]
reduction in blood glucose (female Zucker fa/fa rats): 0.90 ± 0.77 mmol/L
